Patent US20260000658A1, “METHODS FOR THE TREATMENT OF PROLIFERATIVE GLOMERULONEPHRITIS” (INSTITUT NATIONAL DE LA SANTÉ ET DE LA RECHERCHE MÉDICALE, priority 2022, published 2026)

How the values were obtained:
Assay type in all cases: in vivo, mouse
PIK3CA^Pod-HO mice = PIK3CA^Pod-HO mice pilot study, vehicle or alpelisib; conditions: 3 months old
Description: (§1) For the uninephrectomy experiments, the right kidneys were removed under anesthesia. For the medical treatment of mice, 50 mg kg −1 alpelisib (MedChem Tronica) in 1% carboxymethylcellulose (Sigma Aldrich)+0.5% Tween (Sigma Aldrich) or vehicle (1% carboxymethylcellulose+0.5% Tween) was administered by oral gavage daily for the indicated periods of time. Blood and urines were obtained at the indicated times. At euthanasia, blood, urines, kidneys were harvested. In some experiments, spleens, hearts, and bone marrow (BM) in femurs and tibias were harvested as well. Tissues were fixed in 4% paraformaldehyde and paraffin embedded for immunohistochemical analysis, snap-frozen in Optimal Cutting Temperature (OCT), or stored at −80° C. for mRNA or protein analysis.
(§2) Mouse blood counts were analyzed using a hematology analyzer (ProCyte Dx; IDEXX Laboratories). Mouse serum creatinine, blood urea nitrogen, urinary albumin, and urinary creatinine were evaluated using an AU5800 (Beckman Coulter) autoanalyzer. Serum anti-dsDNA measurement was performed according to the manufacturer's instruction using mouse anti-dsDNA ELISA kit (LBIS). The absorbance was measured using Ininite M Nano (TECAN).
(§3) 4-μm kidney sections were stained with periodic acid-Schiff (PAS), Masson's Trichrome (MT), Periodic acid metenamine silver (PAM) or Hematoxylin and Eosin (HE) staining for histological analysis. The degree of glomerular lesions was evaluated using the following scoring system: 0=no lesion, 1=affecting up to 25% of the glomerulus, 2=affecting 25-50% of the glomerulus, 3=affecting 50-75% of the glomerulus, and 4=affecting 75-100%. At least 50 glomeruli per sample were measured for each analysis. An indirect immunoperoxidase method was used for immunohistochemistry. Briefly, after deparaffinization, antigen retrieval was performed with citrate buffer (pH6) or Tris-EDTA buffer (pH9 or pH6) using microwave or high temperature (95° C.). Endogenous peroxidase activity was quenched using 3% hydrogen peroxide; nonspecific protein binding was blocked using 2.5% normal horse serum (Vector Laboratories), and endogenous biotin activity was quenched using the Avidin/Biotin Blocking Kit (Vector Laboratories). When using mouse primary antibodies on mouse tissue, Klear mouse blocking reagent (Diagomics) was used to block endogenous mouse immunoglobulins. After blocking, the tissue sections were incubated with the primary antibodies overnight at 4° C. The following primary antibodies were used: rabbit anti-Ki67 antibody (SP6; Thermo Fisher Scientific), rabbit anti-P-S6RP antibody (D68F8; Cell Signaling Technology), mouse anti-P-AKT (Ser473) antibody (587F11; Cell Signaling Technology), rabbit anti-P-AKT (Thr308) antibody (C31E5E; Cell Signaling Technology), mouse anti-S6RP antibody (54E2; Cell Signaling Technology), chicken anti-GFP antibody (Abcam), guinea pig anti-Nephrin antibody (GP-N2; Progen), rabbit anti-Podocin antibody (P0372; Sigma Aldrich), mouse anti-WTI antibody (6F-H2; DAKO). The corresponding secondary antibodies including anti-mouse IgG, anti-rabbit IgG, anti-guinea pig IgG, biotinylated anti-rabbit IgG (Vector Laboratories), and biotinylated anti-mouse IgG (Vector Laboratories) were applied. For Avidin/Biotin detection, an R.T.U. Vectastain Kit (Vector Laboratories) or streptavidin (Thermo Fisher Scientific) was used. The immunoreactive antigens sites were detected with hydrogen peroxide and diaminobenzidine. […]

Tg26^HE mice = Tg26^HE mice (collapsing glomerulopathy model), vehicle or alpelisib for 8 weeks; conditions: 8 weeks treatment
Description: as §1, §2
as §3, with “diaminobenzidine. For frozen immunofluorescent staining, frozen tissue sections (4 μm) were briefly air dried and fixed in 50% methanol/50% acetone. The sections were then blocked with 2.5% normal horse serum and incubated with primary antibodies: guinea pig anti-Nephrin antibody (GP-N2; Progen) overnight at 4° C. The sections were then incubated at room temperature for 40 min with secondary antibodies: fluorescein isothiocyanate-conjugated (FITC) anti-mouse IgG (Sigma Aldrich), FITC anti-mouse IgM (BD Biosciences), or FITC anti-mouse C3 antibody (abcam).” for “diaminobenzidine.”

[1] = LC-MS analysis of alpelisib in kidneys after oral gavage; conditions: 2 hours after oral gavage
Description: Each tissue type was homogenized in 100% cold methanol with tissue-to-solvent ratio of 1-mg tissue to 5-μl methanol. After sonication of 20 s, the tissue extract was centrifuged at 13,000 g for 30 min and then injected onto a Phenomenex Kinetex XB-C18 HPLC column (100 mm by 2.1 mm) at 45° C. Alpelisib was analyzed by reverse-phase HPLC (Shimadzu LCMS system 8040 interfaced with the LabSolutions software). Twenty […] of tissue extracts were injected onto a column, and the mobile phase used for the separation consisted of two eluants: Solvent A was 0.1% formic acid in ddH20, and solvent B was acetonitrile with 0.1% of formic acid. Compounds were separated by the following discontinuous gradient at a flow rate of 0.6 ml/min: The initial concentration of 20% in solvent B increase to 70% over 6 min, and this was followed by a decrease to 20% over the next minute, and the initial conditions were then maintained for 14 min. The alpelisib was monitored spectrophotometrically by absorbance (photodiode detector) from 205 to 600 nm and by tandem mass detection. The mass measurement was implemented in positive ion mode using multiple reaction monitoring (MRM) with an electrospray ionization source. […] The quantification was done by integration of the peak absorbance area using a calibration curve established with various known concentrations of alpelisib. […]

SMILES: Cc1nc(NC(=O)N2CCC[C@H]2C(N)=O)sc1-c1ccnc(C(C)(C)C(F)(F)F)c1 [alpelisib, Alpelisib]
- albuminuria (PIK3CA^Pod-HO mice; 2 consecutive weeks): progressive albuminuria reduction
- AKT/mTOR pathway in podocytes (PIK3CA^Pod-HO mice; 2 weeks): blunted
- glomerulus proliferation (Ki67) (PIK3CA^Pod-HO mice; 2 weeks): decrease in glomerulus proliferation
- podocyte differentiation markers, protein levels (PIK3CA^Pod-HO mice; 2 weeks): still expressed
- glomeruli, kidney histological analysis (PIK3CA^Pod-HO mice; 2 weeks, vs vehicle): preserved glomeruli
- albuminuria (Tg26^HE mice; 4 weeks old, vs vehicle): lower albuminuria
- AKT/mTOR pathway (Tg26^HE mice): profound AKT/mTOR pathway inhibition
- kidney function (Tg26^HE mice): not significantly improved
- expression of podocyte differentiation markers (Tg26^HE mice; vs vehicle): higher expression of podocyte differentiation markers
- fibrotic markers Col1a and Col3a (Tg26^HE mice; vs vehicle): reduced expression in fibrotic markers
- glomerular lesions (Tg26^HE mice; vs vehicle): less severe glomerular lesions
- inflammatory marker Tnfa (Tg26^HE mice; vs vehicle): lower expression
- kidney volume (Tg26^HE mice; vs vehicle): reduction in kidney volume
- tubular injury markers Lcn2 and KIM1 (Tg26^HE mice; vs vehicle): lower expression of tubular injury markers
- alpelisib in kidneys (LC-MS) [1]: detectable
